US10966962B2, “Method for treating neurodegenerative diseases” (THE BOARD OF TRUSTEES OF THE LELAND STANFORD JUNIOR …, priority 2014, dated 2021)

Assays:
microglia = test: Microglial metabolic phenotyping in MPTP-treated animals (Slc2a1 flow cytometry, ex vivo lactic acid production); set-up: species or system mice; details: 3 oral doses
Source text: For measuring microglial expression of glucose transporter Slc2a1, MPTP-ZLN (n=10), MPTP-Ctrl (n=14), and Veh animals (n=14) were sacrificed. Brain microglia were phenotyped with antibody directed against glucose transporter Slc2a1 (RnD) for flow cytometric acquisition (LSRII, BD) and analysis (FlowJo). For measuring microglial glycolysis, MPTP-ZLN (n=8), MPTP-Ctrl (n=6), and Veh animals (n=6) were sacrificed. Microglia were sorted by flow cytometry and subjected to lactic acid production assays ex vivo (Cayman Chem) for glycolysis measurement. Y-axis represents Slc2a1 expression in median fluorescence units (MFI, A) and lactic acid production in micromolar units ([…], B). […] ANOVA was used for statistical analyses.

STZ-treated mice = test: Disease severity in acute STZ model of AD; type: in vivo; details: STZ-ZLN mice
Experimental: To induce symptoms of AD, STZ (3 mg/kg, Sigma) was administered via intracerebral injection ([…] et al, Int J Neurosci, PMID 24494726, 2014). This is a well-established model of the sporadic form of AD. Briefly, animals were anesthetized and STZ solution in 5 μl artificial cerebrospinal fluid (Harvard Apparatus) was injected through the skull with a 50 μl syringe. Control animals received a similar volume of artificial cerebrospinal fluid without STZ. The injections were performed twice, on Day 1 and Day 3. […] Treatment with ZLN005 continued on a daily schedule until Day 4, when the animals were evaluated. […] In contrast, in STZ-Ctrl mice, only 10% were active, 70% were lethargic, and 20% of these animals had hind limb paralysis. […] The inventors designed a disease scoring system based on evidence of tissue inflammation: with scores of 1 (mild inflammation, increased vascularization/bleeding of internal organs), 2 (moderate inflammation, severe vascularization/bleeding of internal organs), and 3 (severe inflammation, intestinal or stomach swelling). […] The disease score presented in the example is the total score of the two scoring systems. […] Unpaired t-test was used for statistical analysis.

[1] = test system: CD115+CD11b+ blood monocytes; test: Blood monocyte frequency in 5XFAD AD transgenic animals; type: in vivo, mice; details: 25 mg/kg orally 3 times a week for 4 weeks, 7 weeks of age
Experimental: AD transgenic animals were orally treated 3 times a week for 4 weeks with 0.5% methylcellulose or ZLN005 (Sigma) at 25 mg/kg in 0.5% methylcellulose, starting at 3 weeks of age. For measuring the frequency of CD115+CD11b+ blood monocytes, 5[…]=5), 5XFAD-Ctrl (n=4), and WT animals (n=4) were sacrificed at 7 weeks of age. The results are summarized in FIG. 14; Y-axis represents % of total circulating monocytes among circulating immune cells. […] ANOVA was used for statistical analysis.

Q: Which results are given for `CC(C)(C)c1ccc(-c2nc3ccccc3[nH]2)cc1` [ZLN005, 2-(4-tert-butylphenyl)-1H-benzimidazole]?
A: lactic acid production in microglia (microglia; Day 4, ex vivo, vs MPTP-Ctrl): decreased; glucose transporter Slc2a1 expression in microglia (microglia; Day 4, vs MPTP-Ctrl): decreased; animals active (STZ-treated mice; 25 mg/kg orally daily, Day 4): 33%; animals paralyzed (STZ-treated mice; 25 mg/kg orally daily, Day 4): none; animals showing evidence of lethargy (STZ-treated mice; 25 mg/kg orally daily, Day 4): 66%; mean disease score (STZ-treated mice; day 4, total of inflammation and physical activity scores): 1.6; percentage of monocytes among circulating immune cells [1]: decreased
